According to paper PMC4199632, “Exploring the Anti-Cancer Activity of Novel Thiosemicarbazones Generated through the Combination of Retro-Fragments: Dissection of Critical Structure-Activity Relationships” (PLoS ONE, 2014):

Assays:
[1] = Ascorbate oxidation assay (iron complexes); type: biochemical; conditions: iron complex; for Ascorbate oxidation (% of the control): FeIII 10 µM, ascorbate 100 µM
Description: The ability of the iron complexes of the novel ligands to mediate the oxidation of the physiological substrate, ascorbate, was examined using established methods, [18], [22], [52], [53]. Ascorbic acid (100 µM) was prepared immediately prior to each experiment and was incubated in the presence of Fe^III (10 µM; as FeCl3), the chelator (1–60 µM) and a 50-fold molar excess of citrate (500 µM). The absorbance at 265 nm was measured after 10 and 40 min and the difference in absorbance at these time points was calculated. The results of these experiments were expressed as iron-binding equivalents (IBE) due to the different denticity of the chelators examined. The chelators, Dp44mT, DFO and ethylenediaminetetraacetic acid (EDTA) were used as controls as the ability of their iron complexes to oxidize ascorbate has been extensively characterized, [15], [52], [53].
The ability of the iron complexes of the novel TSCs to catalyze the oxidation of the physiological substrate, ascorbate, was important to assess as redox cycling may play a critical role in their anti-proliferative activity, [15], [18], [52], [53]. Thus, the oxidation of ascorbate mediated by the iron complexes of series 1–6 were examined in comparison to the iron complexes of the control compounds, DFO, EDTA and Dp44mT, as the ability of the latter to oxidize ascorbate is well characterized, [15], [52], [53], [68]. The results were expressed as a percentage of the control (no chelator) at iron-binding equivalents (IBEs) of 0.1 (excess “free” iron), 1 (iron-chelator complexes with a fully filled coordination sphere), or 3 (excess free chelator), due to the different denticity of the chelators examined (Fig. 10).
Figure 10 Effect of the iron complexes of (A) series 1, (B) series 2, (C) series 3, (D) series 4, (E) series 5 and (F) series 6 chelators, relative to DFO, Dp44mT and EDTA, on ascorbate oxidation. Chelators at iron-binding equivalent (IBE) ratios of 0.1, 1, and 3 were incubated in the presence of Fe^III (10 µM) and ascorbate (100 µM). The UV-Vis absorbance at 265 nm was recorded after 10 and 40 min, and the difference between the time points was calculated. Results are mean ±SD (3 experiments).

[2] = tested on: Raji Burkitt's lymphoma cells; test: Proliferation assay (MTT, 72 h); type: cell-based; conditions: Homo sapiens, 72 h incubation, mean ±SD (3 experiments)
Outline: (§1)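 Cells seeded 24 h before treatment, then exposed at 37 °C for 72 h (SK-N-MC, Raji, HeLa) or 96 h (HCT116, NHDF); final DMSO <0.05%. Read-outs: MTT at 570 nm (SK-N-MC, Raji), crystal violet at 595 nm (HeLa), MTS at 490 nm (HCT116, NHDF); IC50 is 50% absorbance versus untreated control, triplicates repeated three times.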

[3] = tested on: SK-N-MC neuroepithelioma cells; test: Proliferation assay (MTT, 72 h); type: cell-based; conditions: Homo sapiens, 72 h incubation, mean ±SD (3 experiments)
Outline: as §1

[4] = tested on: normal human dermal fibroblast (NHDF) cells; test: Proliferation assay (MTS, 96 h), normal mortal cells; type: cell-based; conditions: 96 h incubation, mean ±SD (3 experiments)
Outline: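 HCT116 p53+/+, HCT116 p53−/− and NHDF cells were seeded 24 h before a 96 h compound exposure at 37 °C, with final DMSO <0.05%. Viability was read by MTS absorbance at 490 nm after 1 h; IC50 was the concentration reducing absorbance to 50% of untreated control.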

SMILES	IC50 [2] [nM]	IC50 [3] [nM]	Ascorbate oxidation compared with controls ([1]; IBE 3)	IC50 ([4]; Homo sapiens, NHDF, 96 h) [nM]	IC50 [4] [nM]	Ascorbate oxidation (% of the control) ([1]; IBE 0.1) [%]	Ascorbate oxidation (% of the control) ([1]; IBE 1) [%]	Ascorbate oxidation (% of the control) ([1]; IBE 3)
S=C(N/N=C/c1ccc2ccccc2n1)N1CCN(c2ccccc2)CC1 [2b]	40 ± 10	330 ± 20			33 ± 7			
CC(=O)N(O)CCCCCNC(=O)CCC(=O)N(O)CCCCCNC(=O)CCC(=O)N(O)CCCCCN [DFO, desferrioxamine, reference compound]	4740 ± 1800	15100 ± 5200		> 25000			47	23%
CCN1CCN(C(=S)N/N=C/c2ccc3ccccc3n2)CC1 [2a]	60 ± 20	2540 ± 860		9620 ± 1800				200–265%
S=C(NN=C(c1ccccn1)c1ccccn1)N1CCN(c2cnccn2)CC1 [1e]	40 ± 20	70 ± 50		14 ± 3				200–265%

The next lines start with results.

IC50 [2] [nM]	IC50 [3] [nM]	SMILES	Ascorbate oxidation compared with controls ([1]; IBE 3)	IC50 ([4]; Homo sapiens, NHDF, 96 h) [nM]	IC50 [4] [nM]	Ascorbate oxidation (% of the control) ([1]; IBE 0.1) [%]	Ascorbate oxidation (% of the control) ([1]; IBE 1) [%]	Ascorbate oxidation (% of the control) ([1]; IBE 3)
690 ± 510	> 6250	CN(C(=S)N/N=C/c1ccccc1O)C1CCCCC1 [6f]	decreased ascorbate oxidation relative to the control	> 25000				
7 ± 1	12 ± 1	CN(C)C(=S)NN=C(c1ccccn1)c1ccccn1 [Dp44mT, di-2-pyridylketone 4,4-dimethyl-3-thiosemicarbazone, reference compound]		15400 ± 5060		129	203	196%
720 ± 290	2040 ± 340	CN(C(=S)N/N=C/c1cnc2ccccc2n1)C1CCCCC1 [5f]	decreased ascorbate oxidation relative to the control	500 ± 210				
810 ± 100	820 ± 190	CN(C(=S)N/N=C/c1ccc2ccccc2n1)C1CCCCC1 [2f]		15 ± 5				
